This passage reports melting point results from patent publication US20100298377A1, “NOVEL SUBSTITUTED INDAZOLES, THE PREPARATION THEREOF AND USE OF SAME IN THERAPEUTICS” (SANOFI-AVENTIS, priority 2007, published 2010).

One may read the melting point as the temperature of the solid-liquid transition.

Each structure is given as a SMILES string. Structures can show the parent of a compound that is named as a salt.

In turn, `Cc1n[nH]c2ccc(NC(=O)NC(c3ccccc3)C3CCCCN3C)cc12` (as salt: fumaric acid salt) [Ex 18, 3-Methyl-5-({[(1-methylpiperid-2-yl)(phenyl)methyl]carbamoyl}amino)-1H-indazole ((S,2S),(R,2R))] displayed a melting point of 200 to 201 °C.

As to `CN1CCCCC1C(NC(=O)Nc1ccc2[nH]nc(-c3nc4ccccc4[nH]3)c2c1)c1ccccc1` (as salt: fumaric acid salt) [Ex 17, 1-[3-(1H-Benzimidazol-2-yl)-1H-indazol-5-yl]-3-[(1-methylpiperid-2-yl)(phenyl)methyl]urea((S,2S),(R,2R))], the melting point was found to be 250 °C.

For the compound `O=C(Nc1ccc2[nH]nc(C#Cc3ccccc3)c2c1)N[C@@H](c1ccc(Cl)c(Cl)c1)[C@@H]1CCCCN1` (as salt: fumaric acid salt) [Ex 26, 1-{(S)-(3,4-Dichlorophenyl)[(2S)-piperid-2-yl]methyl}-3-[3-(phenylethynyl)-1H-indazol-5-yl]urea], the melting point came out at 160 °C. The value for `CN1CCCCC1C(NC(=O)Nc1ccc2[nH]nc(NC(=O)c3ccccc3)c2c1)c1ccccc1` (as salt: fumarate) [Ex 28, N-[5-({[(1-Methylpiperid-2-yl)(phenyl)methyl]carbamoyl}amino)-1H-indazol-3-yl]benzamide((S,2S),(R,2R))] was 235 °C; that for `CN1CCCCC1C(OC(=O)Nc1ccc2[nH]ncc2c1)c1cc(F)cc(Cl)c1` (stereo not drawn) (as salt: hydrochloride) [Ex 36, (3-Chloro-5-fluorophenyl)(1-methylpiperid-2-yl)methyl 1H-indazol-5-ylcarbamate] was 172 °C; that for `CN1CCCCC1C(NC(=O)Nc1ccc2[nH]nc(CCc3ccccc3)c2c1)c1ccccc1` (as salt: fumaric acid salt) [Ex 27, 1-[(1-Methylpiperid-2-yl)(phenyl)methyl]-3-[3-(2-phenylethyl)-1H-indazol-5-yl]urea((S,2S),(R,2R))] was 205 °C. The same measure for `O=C(Nc1ccc2[nH]ncc2c1)OC(c1cc(Cl)cc(Cl)c1)C1CCCCN1` (as salt: hydrochloride) [Ex 34, (3,5-Dichlorophenyl)[piperid-2-yl]methyl 1H-indazol-5-ylcarbamate((S,2S),(R,2R))]: 220 °C; for `CN1CCCCC1C(NC(=O)Nc1ccc2[nH]nc(-c3ccccn3)c2c1)c1ccccc1` (as salt: fumaric acid salt) [Ex 15, 1-[(1-Methylpiperid-2-yl)(phenyl)methyl]-3-(3-pyrid-2-yl-1H-indazol-5-yl)urea((S,2S),(R,2R))]: above 250 °C; for `S=C(Nc1ccc2[nH]ncc2c1)N[C@@H](c1ccc(Cl)c(Cl)c1)[C@@H]1CCCCN1` (as salt: fumarate) [Ex 31, 1-{(S)-(3,4-Dichlorophenyl)[(2S)-piperid-2-yl]methyl}-3-(1H-indazol-5-yl)thiourea]: 145 °C.

In turn, `CN1CCCCC1C(NC(=O)Nc1cc(F)c2[nH]nc(N)c2c1)c1ccccc1` (as salt: fumaric acid salt) [Ex 20, 1-(3-Amino-7-fluoro-1H-indazol-5-yl)-3-[(1-methylpiperid-2-yl)(phenyl)methyl]urea((S,2S),(R,2R))] had a melting point of 221 to 222 °C. The same measure for `O=C(Nc1ccc2[nH]ncc2c1)O[C@@H](c1ccc(Cl)c(Cl)c1)[C@@H]1CCCCN1` (as salt: hydrochloride) [Ex 38b, (S)-(3,4-Dichlorophenyl)[(2S)-piperid-2-yl]methyl 1H-indazol-5-ylcarbamate]: 194 °C; for `O=C(Nc1ccc2[nH]ncc2c1)N[C@@H](c1cc(F)cc(Cl)c1)[C@@H]1CCCCN1` (as salt: hydrochloride) [Ex 3, 1-{(S)-(3-Chloro-5-fluorophenyl)[(2S)-piperid-2-yl]methyl}-3-(1H-indazol-5-yl)urea]: 208 °C.
